Assay results reported in the supplement of paper PMC11208160.

Experiment: recombinant UMI read abundance after kanamycin selection (control-corrected) (log10(CPM+1)); higher = more efficient recombination; extreme values may be limits of the assay; sequences stand for … in AGTGCAGAGAAAATCGGCCAGTTTTCTCTGCCTGCAGTCCGCATGCCGTGGGACCCCTTGGGTTCTAACCTGTTGCCTAGATTTATGCAGCGGACTGCCTTTCTCCCAAAGTGATAAACCGG…AGGTTGGTTTCACT; site = the 11-nt donor
Outline: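 Reported values are log10(CPM+1) from a pooled Escherichia coli screen of donor and donor-binding-loop pairs for the IS621 bridge recombinase. Selection used IPTG (0.07 mM) plus kanamycin, against unselected plating, each in two replicates. Recombinant UMIs were amplified across the donor–target junction, sequenced, converted to CPM, averaged over replicates and scaled by control-derived factors.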
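Also: IS621 bridge recombinase in Escherichia coli cells against a fixed T5 target plasmid.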

Sequence | recombinant UMI read abundance (log10)
CGGGAACCATGGACCGGTTTTCCCGGTAATCCGTATTTGAA (site CGGGAACCTCT) | 0.00576
CGGGAACCATGGACCGGTTTTCCCGGTAATCCGTATTTGAA (site CGGGAACCTGT) | 0
CGGGAACCATGGACCGGTTTTCCCGGTAATCCGTATTTGAA (site CGGGAACCTTT) | 0
CGGGAGCCATGGACCGGTTTTCCCGGTAATCCGTATTTGCT (site CGGGAGCCTAG) | 0.17
CGGGAGGCATGGACCGGTTTTCCCGGTAATCCGTATTTGCC (site CGGGAGACTGG) | 0
CGGGAGGCATGGACCGGTTTTCCCGGTAATCCGTATTTGCC (site CGGGAGCCTGG) | 0
CGGGAGGCATGGACCGGTTTTCCCGGTAATCCGTATTTGCC (site CGGGAGGCTGG) | 0.183
CGGGAGGCATGGACCGGTTTTCCCGGTAATCCGTATTTGCC (site CGGGAGTCTGG) | 0
CGGGAGTCATGGACCGGTTTTCCCGGTAATCCGTATTTGAC (site CGGGAGTCTGA) | 2.28
CGGGAGTCATGGACCGGTTTTCCCGGTAATCCGTATTTGAC (site CGGGAGTCTGC) | 1.66
CGGGAGTCATGGACCGGTTTTCCCGGTAATCCGTATTTGAC (site CGGGAGTCTGG) | 1.25
CGGGAGTCATGGACCGGTTTTCCCGGTAATCCGTATTTGAC (site CGGGAGTCTGT) | 0.147
CGGGAGTCATGGACCGGTTTTCCCGGTAATCCGTATTTGGT (site CGGGAGTCTAC) | 2.11
CGGGATCCATGGACCGGTTTTCCCGGTAATCCGTATTTGTA (site CGGAATCCTAA) | 0
CGGGATCCATGGACCGGTTTTCCCGGTAATCCGTATTTGTA (site CGGGATCCTTA) | 1.69
CGGGATTCATGGACCGGTTTTCCCGGTAATCCGTATTTGCC (site CGGGAATCTGG) | 0.816
CGGGATTCATGGACCGGTTTTCCCGGTAATCCGTATTTGCC (site CGGGACTCTGG) | 2.97
CGGGATTCATGGACCGGTTTTCCCGGTAATCCGTATTTGCC (site CGGGAGTCTGG) | 1.18
CGGGATTCATGGACCGGTTTTCCCGGTAATCCGTATTTGCC (site CGGGATTCTGG) | 2.58

Sequence | recombinant UMI read abundance (log10)
CGGGATTCATGGACCGGTTTTCCCGGTAATCCGTATTTGTT (site CGGAATCCTAA) | 0
CGGGATTCATGGACCGGTTTTCCCGGTAATCCGTATTTGTT (site CGGGATTCTAA) | 2.91
CGGGGTACATGGACCGGTTTTCCCGGTAATCCGTATTTGTA (site CGGGGTACTTA) | 2.49
CGGGGTGCATGGACCGGTTTTCCCGGTAATCCGTATTTGGT (site CGGGGTGCTAC) | 1.25
CGGGTCACATGGACCGGTTTTCCCGGTAATCCGTATTTGTC (site CGGGTCACTGA) | 3.01
CGGGTTCCATGGACCGGTTTTCCCGGTAATCCGTATTTGAC (site CGGGTTCCTGT) | 0.77
CGGTAGTCATGGACCGGTTTTCCCGGTAATCCGTATTTGCC (site CGGAAGTCTGG) | 0.759
CGGTAGTCATGGACCGGTTTTCCCGGTAATCCGTATTTGCC (site CGGCAGTCTGG) | 1.47
CGGTAGTCATGGACCGGTTTTCCCGGTAATCCGTATTTGCC (site CGGGAGTCTGG) | 0
CGGTAGTCATGGACCGGTTTTCCCGGTAATCCGTATTTGCC (site CGGTAGTCTGG) | 2.78
CGGTATACATGGACCGGTTTTCCCGGTAATCCGTATTTGTT (site CGGAATCCTAA) | 0
CGGTATACATGGACCGGTTTTCCCGGTAATCCGTATTTGTT (site CGGTATACTAA) | 1.62
CGGTATCCATGGACCGGTTTTCCCGGTAATCCGTATTTGAT (site CGGAATCCTAA) | 0.00344
CGGTATCCATGGACCGGTTTTCCCGGTAATCCGTATTTGAT (site CGGTATCCTAT) | 0.734
CGGTATCCATGGACCGGTTTTCCCGGTAATCCGTATTTGCC (site CGGTATCCTGG) | 0
CGGTCATCATGGACCGGTTTTCCCGGTAATCCGTATTTGTT (site CGATCATCTAG) | 0
CGGTCATCATGGACCGGTTTTCCCGGTAATCCGTATTTGTT (site CGGTCATCTAA) | 0.27
CGGTCGACATGGACCGGTTTTCCCGGTAATCCGTATTTGGA (site CGGTCGACTTC) | 0.112
CGGTGCGCATGGACCGGTTTTCCCGGTAATCCGTATTTGCC (site CGGTGCGCTGG) | 1.48
